Results: patent US4539206A, “Topical compositions containing copper (II) complexes of 3,5-dioxo-pyrazolidine derivatives and methods of combatting inflammation with them” (Alcusal Incorporated Pty. Ltd., priority 1981, dated 1985)
Read-outs that look alike come from different tables or passages of the source.

Legend:
[1] = system: arthritis induced by arthritogenic adjuvant (M. tuberculosis in squalane); experiment: anti-arthritic activity in established adjuvant arthritis, topical application; type: in vivo, PVG x DA rats; settings: day 12 to day 16, once daily 5 ml/kg for 4 days, means ± standard error; for increase in paw thickness (mm), tail: DMSO controls 0.9 ± 0.2; for increase in paw thickness (mm), rear paws: DMSO controls 2.2 ± 0.1
[2] = Cu^2+ + 2HPB = [Cu(PB)2] + 2H^+, room temperature, DMSO, absorbance at 430 nm
Description: The following solutions were prepared in DMSO using stock solutions of 0.01 M copper (II) acetate (A) and 0.20 M phenylbutazone (B)
and the spectra were measured using a Varian Techtron 634S UV-visible spectrophotometer and 1 cm cells.
In FIG. 2, a plot of absorbance (arbitrary scale) at 430 nm versus molar ratio of phenylbutazone (HPB) to copper has been made. […]

[3] = system: hydroxylapatite-induced paw swelling; settings: applied ×2; hydroxylapatite 50 mg/ml, 0.15 ml injected
Description: (§1) We have carried out assays for acute anti-inflammatory and anti-arthritic activities by procedures described previously in W. R. Walker, S. J. Beveridge and M. W. Whitehouse, "Anti-inflammatory Activity of a Dermally Applied Copper Salicylate Preparation (Alcusal)", Agents and Actions 10, 38 (1980).
(§2) (a) Male Wistar rats were shaved (ca 20 cm^2) behind the neck and a solution of 0.1 M copper (II) acetate containing 0.25 M phenylbutazone in DMSO was applied (5 ml/kg). The first application was made 2.5 hr before injecting sodium carrageenan solution into the paw (a 0.1 ml injection delivering 1 mg in 0.15 M NaCl) to induce oedema. A second application of the copper phenylbutazone, if made, was at 1.5 hr before the carrageenan was injected.
(§3) The swelling was measured unidimensionally as increase in paw thickness after 2 and 4 hrs using a micrometer screw gauge. Controls were treated with DMSO only.

[4] = system: sodium carrageenan-induced paw oedema; settings: 5 ml/kg, 0.1 M copper (II) acetate containing 0.25 M phenylbutazone in DMSO, controls DMSO
Description: as §1, §2, §3

[5] = Bio-distribution of ^64 Cu(PB)2.x DMSO after topical application to rats; type: in vivo, male white rats; settings: for Bio-distribution of ^64 Cu as % of Original Applied, Faeces: assumed faecal output; for Bio-distribution of ^64 Cu as % of Original Applied, Blood (20 ml): assumed total blood volume; for Bio-distribution of ^64 Cu as % of Original Applied, Urine: assumed urine output
Description: (1) The copper (II) phenylbutazone complex labelled with ^64 Cu was prepared as follows: Radioactive copper (II) acetate containing 3 mCi of ^64 Cu (A.A.E.C. Lucas Heights) was mixed with copper (II) acetate monohydrate (0.250 g), phenylbutazone (0.964 g) and dissolved in DMSO (10 ml). Glycerol (2.5 ml) was added later.
Six male white rats (average weight 250 g) were anaesthetised with halothane and an area of skin (ca 20 cm^2) immediately below the neck was shaved with electric hair clippers. Two aliquots (each 0.75 ml) were applied to each rat, whilst anaesthetised, over a period of one hour.
Each rat was placed separately in an experimental cage which permitted collection of both urine and faeces. At times of 6, 24 and 48 hours after topical application, two rats were anaesthetised with ether and euthenased by decapitation in a guillotine. Each organ except the thymus, spleen and the adrenals were cut into two samples for more accurate counting. This was done on a Packard automatic γ spectrometer for periods from 1 to 10 minutes.
All counts were corrected to zero time per gram of wet tissue. After 24 and 48 hours, the faeces were dry and the activity in them is not recorded in FIG. 3.
In Table 1, the results for the location in the rats of the ^64 Cu activity at 6, 24 and 48 hours after topical application are shown.

[6] = applied ×1 (2.5 hr before carrageenan)
[7] = applied ×2 (2.5 and 1.5 hr before carrageenan)

## CCCCC1C(=O)N(c2ccccc2)N(c2ccccc2)C1=O [HPB, phenylbutazone, reference compound]
[1]
  increase in paw thickness (mm), tail: 0.3 ± 0.1 mm
  increase in paw thickness (mm), rear paws: 1.0 ± 0.2 mm

## CCCC[c-]1c(=O)n(-c2ccccc2)n(-c2ccccc2)c1=O.CCCC[c-]1c(=O)n(-c2ccccc2)n(-c2ccccc2)c1=O.[Cu+2] [[Cu(PB)2].x(DMSO), copper (II) di(phenylbutazone)]
[2]; listed as Cu(PB)2. xDMSO
  equilibrium constant, log K: ~4.7
[2]; listed as [Cu(PB)2 ]
  equilibrium constant, log K: ~ 4.7
[3]
  % inhibition of paw swelling at 2 hr: 42%
  % inhibition of paw swelling at 4 hr: 76%
[4]; [6]
  % inhibition of paw swelling at 2 hr: 34%
  % inhibition of paw swelling at 4 hr: 33%
[4]; [7]
  % inhibition of paw swelling at 2 hr: 65%
  % inhibition of paw swelling at 4 hr: 71%
[1]
  increase in paw thickness (mm), tail: 0.3 ± 0.2 mm
  increase in paw thickness (mm), rear paws: 0.4 ± 0.1 mm
[5]; result in words
  absorption after topical application: readily enters the bloom stream
  dermal penetration: excellent dermal penetration

## CCCC[c-]1c(=O)n(-c2ccccc2)n(-c2ccccc2)c1=O.CCCC[c-]1c(=O)n(-c2ccccc2)n(-c2ccccc2)c1=O.[64Cu+2] [^64 Cu(PB)2.x DMSO]
[5]; 6 h
  Bio-distribution of ^64 Cu as % of Original Applied, Adrenals: -- (less than 0.004%)
  Bio-distribution of ^64 Cu as % of Original Applied, Brain: 0.02%
  Bio-distribution of ^64 Cu as % of Original Applied, Heart: 0.01%
  Bio-distribution of ^64 Cu as % of Original Applied, Kidney: 0.04%
  Bio-distribution of ^64 Cu as % of Original Applied, Liver: 6.22%
  Bio-distribution of ^64 Cu as % of Original Applied, Skin (application site): 5.34%
  Bio-distribution of ^64 Cu as % of Original Applied, Spleen: 0.01%
  Bio-distribution of ^64 Cu as % of Original Applied, Thymus: 0.01%
  Bio-distribution of ^64 Cu as % of Original Applied, Faeces: 0.07%
  Bio-distribution of ^64 Cu as % of Original Applied, Blood (20 ml): 0.09%
  Bio-distribution of ^64 Cu as % of Original Applied, Urine: 0.04%
[5]; 24 h
  Bio-distribution of ^64 Cu as % of Original Applied, Adrenals: -- (less than 0.004%)
  Bio-distribution of ^64 Cu as % of Original Applied, Brain: 0.01%
  Bio-distribution of ^64 Cu as % of Original Applied, Heart: -- (less than 0.004%)
  Bio-distribution of ^64 Cu as % of Original Applied, Kidney: 0.04%
  Bio-distribution of ^64 Cu as % of Original Applied, Liver: 0.17%
  Bio-distribution of ^64 Cu as % of Original Applied, Skin (application site): 3.81%
  Bio-distribution of ^64 Cu as % of Original Applied, Spleen: -- (less than 0.004%)
  Bio-distribution of ^64 Cu as % of Original Applied, Thymus: -- (less than 0.004%)
  Bio-distribution of ^64 Cu as % of Original Applied, Faeces: 28.9%
  Bio-distribution of ^64 Cu as % of Original Applied, Blood (20 ml): 0.08%
  Bio-distribution of ^64 Cu as % of Original Applied, Urine: 0.21%
[5]; 48 h
  Bio-distribution of ^64 Cu as % of Original Applied, Adrenals: -- (less than 0.004%)
  Bio-distribution of ^64 Cu as % of Original Applied, Brain: 0.01%
  Bio-distribution of ^64 Cu as % of Original Applied, Heart: -- (less than 0.004%)
  Bio-distribution of ^64 Cu as % of Original Applied, Kidney: 0.04%
  Bio-distribution of ^64 Cu as % of Original Applied, Liver: 0.15%
  Bio-distribution of ^64 Cu as % of Original Applied, Skin (application site): 1.02%
  Bio-distribution of ^64 Cu as % of Original Applied, Spleen: 0.01%
  Bio-distribution of ^64 Cu as % of Original Applied, Thymus: -- (less than 0.004%)
  Bio-distribution of ^64 Cu as % of Original Applied, Faeces: 49.9%
  Bio-distribution of ^64 Cu as % of Original Applied, Blood (20 ml): 0.08%
  Bio-distribution of ^64 Cu as % of Original Applied, Urine: 0.40%
[5]; after two days, topical application, 2880 min
  ^64 Cu found in the faeces: about 50%
[5]; result in words
  clearance of ^64 Cu from the system: cleared from the system in several days
[5]; result in words, 6 to 48 h
  activity of ^64 Cu in the skin at the site of application: decreases linearly with time
